Experimental data: patent US8754242B2, “Herbicides” (Syngenta Crop Protection LLC, priority 2007, dated 2014)

What was measured:
Type in all cases: in vivo
[1] = system: Alopecurus myosuroides (ALOMY); experiment: Test Example 1 pre-emergence herbicidal activity; conditions: Alopecurus myosuroides, 480 h, rate 250 g/ha, evaluated 20 days later, read-out: Pre-emergence activity ALOMY (100=total damage to plant; 0=no damage to plant)
Procedure, shortened: (§1)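 Plants sown in standard soil in pots; sprayed 1 day after sowing (pre-emergence) or after 10 days' glasshouse cultivation (post-emergence) with aqueous spray of compound formulated in acetone plus Emulsogen EL/N-methylpyrrolidone/dipropylene glycol monomethyl ether/X-77 solution. Damage scored 0–100 (100 = total damage) after 20 days (pre) or 15 days (post).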

Avena fatua (AVEFA) [2] = experiment: Test Example 1 pre-emergence herbicidal activity; conditions: rate 250 g/ha, evaluated 20 days later; for pest or weed control at 250 g/ha: Avena fatua, 480 h, read-out: Pre-emergence activity AVEFA (100=total damage to plant; 0=no damage to plant)
Procedure, shortened: as §1

[3] = system: Digitaria sanguinalis (DIGSA); experiment: Test Example 1 pre-emergence herbicidal activity; conditions: Digitaria sanguinalis, 480 h, rate 250 g/ha, evaluated 20 days later, read-out: Pre-emergence activity DIGSA (100=total damage to plant; 0=no damage to plant)
Procedure, shortened: as §1

[4] = system: Echinochloa crus-galli (ECHCG); experiment: Test Example 1 pre-emergence herbicidal activity; conditions: Echinochloa crus-galli, 480 h, rate 250 g/ha, evaluated 20 days later, read-out: Pre-emergence activity ECHCG (100=total damage to plant; 0=no damage to plant)
Procedure, shortened: as §1

Lolium perenne (LOLPE) [5] = experiment: Test Example 1 pre-emergence herbicidal activity; conditions: Lolium perenne, 480 h, rate 250 g/ha, evaluated 20 days later, read-out: Pre-emergence activity LOLPE (100=total damage to plant; 0=no damage to plant)
Procedure, shortened: as §1

Setaria faberi (SETFA) [6] = experiment: Test Example 1 pre-emergence herbicidal activity; conditions: Setaria faberi, 480 h, rate 250 g/ha, evaluated 20 days later, read-out: Pre-emergence activity SETFA (100=total damage to plant; 0=no damage to plant)
Procedure, shortened: as §1

[7] = system: Alopecurus myosuroides (ALOMY); experiment: Test Example 1 post-emergence herbicidal activity; conditions: 360 h, rate 125 g/ha, evaluated 15 days later, read-out: Post-emergence activity ALOMY (100=total damage to plant; 0=no damage to plant)
Procedure, shortened: as §1

Avena fatua (AVEFA) [8] = experiment: Test Example 1 post-emergence herbicidal activity; conditions: 360 h, rate 125 g/ha, evaluated 15 days later, read-out: Post-emergence activity AVEFA (100=total damage to plant; 0=no damage to plant)
Procedure, shortened: as §1

[9] = system: Digitaria sanguinalis (DIGSA); experiment: Test Example 1 post-emergence herbicidal activity; conditions: rate 125 g/ha, evaluated 15 days later; for pest or weed control at 125 g/ha: 360 h, read-out: Post-emergence activity DIGSA (100=total damage to plant; 0=no damage to plant)
Procedure, shortened: as §1

[10] = system: Echinochloa crus-galli (ECHCG); experiment: Test Example 1 post-emergence herbicidal activity; conditions: 360 h, rate 125 g/ha, evaluated 15 days later, read-out: Post-emergence activity ECHCG (100=total damage to plant; 0=no damage to plant)
Procedure, shortened: as §1

Lolium perenne (LOLPE) [11] = experiment: Test Example 1 post-emergence herbicidal activity; conditions: 360 h, rate 125 g/ha, evaluated 15 days later, read-out: Post-emergence activity LOLPE (100=total damage to plant; 0=no damage to plant)
Procedure, shortened: as §1

Setaria faberi (SETFA) [12] = experiment: Test Example 1 post-emergence herbicidal activity; conditions: 360 h, rate 125 g/ha, evaluated 15 days later, read-out: Post-emergence activity SETFA (100=total damage to plant; 0=no damage to plant)
Procedure, shortened: as §1

SMILES | pest or weed control at 250 g/ha [1] | pest or weed control at 250 g/ha (Avena fatua (AVEFA) [2]) | pest or weed control at 250 g/ha [3] | pest or weed control at 250 g/ha [4] | pest or weed control at 250 g/ha (Lolium perenne (LOLPE) [5]) | pest or weed control at 250 g/ha (Setaria faberi (SETFA) [6]) | pest or weed control at 125 g/ha [7] | pest or weed control at 125 g/ha (Avena fatua (AVEFA) [8]) | pest or weed control at 125 g/ha [9] | pest or weed control at 125 g/ha [10] | pest or weed control at 125 g/ha (Lolium perenne (LOLPE) [11]) | pest or weed control at 125 g/ha (Setaria faberi (SETFA) [12]) | Pre-emergence activity AVEFA (100=total damage to plant; 0=no damage to plant) (Avena fatua (AVEFA) [2]) | Post-emergence activity DIGSA (100=total damage to plant; 0=no damage to plant) [9]
Cc1cc(C)c(C2=C(O)[C@@H]3[C@@H]4O[C@@H](C[C@H]4c4cnccn4)[C@@H]3C2=O)c(C)c1 [Example T187] | 10% | 20% | 20% | 10% | 60% | 40% | 70% | 10% | 60% | 70% | 40% | 60% |  | 
COc1cc(C)c(C2=C(O)[C@H]3[C@@H](C2=O)[C@@H]2CC[C@H]3O2)c(C)c1 [Example T208] | 50% | 70% | 70% | 80% | 80% | 80% | 70% | 70% | 50% | 80% | 80% | 70% |  | 
CCc1cc(C)cc(CC)c1C1=C(O)[C@H]2[C@@H](C1=O)[C@@H]1C=C[C@H]2O1 [Example T4] | 90% | 90% | 100% | 100% | 100% | 90% | 80% | 90% | 80% | 100% | 90% | 80% |  | 
Cc1cc(C)c(C2=C(O)[C@@H]3[C@@H]4O[C@@H](C[C@H]4c4ccc(F)nc4)[C@@H]3C2=O)c(C)c1 [Example T129] | 100% | 90% | 90% | 100% | 90% | 100% | 80% | 80% | 80% | 100% | 70% | 100% |  | 
CSC1=C[C@@H]2O[C@@]1(C)[C@@H]1C(O)=C(c3c(C)cc(C)cc3C)C(=O)[C@H]21 (racemic) [Example T64] | 0% | 0% | 10% | 50% | 10% | 20% | 10% | 0% | 60% | 50% | 0% | 30% |  | 
CC1=C2CCC(C)C[C@@]23O[C@@H]1C1C(=O)C(c2c(C)cc(C)cc2C)=C(O)C13 (stereo partly drawn) [Example T60] | 0% | 40% | 30% | 30% | 10% | 10% | 10% | 0% | 50% | 0% | 0% | 40% |  | 
CCc1cc(C)cc(CC)c1C1=C(O)[C@H]2[C@@H](C1=O)[C@@H]1CC[C@H]2O1 [Example T10] | 80% |  | 80% | 90% | 100% | 80% | 70% | 70% |  | 80% | 80% | 80% | 70 | 50
Cc1cc(C)c(C2=C(O)[C@@H]3[C@@H]4O[C@@H](C[C@H]4c4nc(C)cnc4C)[C@@H]3C2=O)c(C)c1 [Example T193] | 20% | 30% | 20% | 20% | 60% | 40% | 60% | 40% | 60% | 60% | 30% | 30% |  | 
CCc1cc(C)cc(CC)c1C1=C(O)C2[C@@H](C1=O)[C@@H]1C[C@@H](c3ccc(OC)cc3)[C@H]2O1 (stereo partly drawn) [Example T156] | 70% | 60% | 70% | 70% | 70% | 70% | 90% | 80% | 70% | 100% | 70% | 100% |  | 
CCc1cc(C)cc(CC)c1C1=C(OC(=O)C(C)C)[C@H]2[C@@H](C1=O)[C@@H]1CC[C@H]2O1 [Example P26] | 100% | 90% | 100% | 100% | 100% | 100% | 100% | 100% | 100% | 100% | 90% | 100% |  | 
CCc1cc(C)cc(C)c1C1=C(O)[C@H]2[C@@H](C1=O)[C@@H]1CC[C@H]2O1 [Example T2] | 100% | 100% | 100% | 100% | 100% | 90% | 100% | 90% | 100% | 100% | 100% | 80% |  | 
CC#CCOC(=O)OC1=C(c2c(CC)cc(C)cc2CC)C(=O)[C@@H]2[C@H]1[C@H]1CC[C@@H]2O1 (racemic) [Example P15] | 80% | 90% | 100% | 100% | 90% | 100% | 100% | 90% | 80% | 100% | 90% | 80% |  | 
Cc1cc(C)c(C2=C(O)[C@@H]3[C@@H]4O[C@@H](C[C@H]4c4ccc(OC(F)(F)F)cc4)[C@@H]3C2=O)c(C)c1 [Example T91] | 20% | 50% | 70% | 50% | 20% | 50% | 90% | 90% | 100% | 100% | 50% | 100% |  | 
